Common to all, as to type: cell-based
The test system of one assay is Panc1-G12D. Nature of the assay: Viability assay (CellTiterBlue, 72 hr) Panc1. The following applies: Homo sapiens, PANC-1, GI50, CellTiterBlue, Panc1 K-Ras G12D, read-out: 72 hr Cell Viability Panc1 (G12D). On the procedure: (§1) Viability assays were performed on exemplary compounds and Table 2 below lists exemplary results for selected compounds tested on K-Ras wild type cell lines (Ishikawa, U87-MG, HCC827, and A375) and various K-Ras mutant cell lines (Panc1-G12D; Panc10.05-G12D; HCT116-G31D). Results are expressed in μM and corresponding structures are shown in FIGS. 2A-2G and Examples 1-152, above.
(§2) Cells are counted and seeded at 1000 cells/36 ul medium/well into 384-well microplates. Cells are returned to 37° C. CO2 incubator for 18 hr. Drug is made as 200× in DMSO and diluted into medium to 10×. To each well is added 4 ul 10× drug, and plates are returned to the incubator. Final assay DMSO concentration is 0.5%. After 72 hr, 8 ul CellTiterBlue (Promega) is added to each well. After 3 hr, fluorescence (Ex550/Em590) is determined on the Victor Plate Reader (Perkin Elmer). Assay range is determined by DMSO control (100% viability) and 100 uM tamoxifen (0% viability). GI50 values are calculated using Graphpad Prism.
In general terms: Resazurin is reduced to fluorescent resorufin, in cell work by metabolically active cells.

The test system of assay [1] is Ishikawa (K-Ras wild type cell line). Nature of the assay: Viability assay (CellTiterBlue, 72 hr) Ishikawa. Conditions: Homo sapiens, GI50, CellTiterBlue, Ishikawa K-Ras wild-type. The protocol: as §1, §2
The test system of the next assay is HCT116-G31D. Nature of the assay: Viability assay (CellTiterBlue, 72 hr) HCT116. The following applies: Homo sapiens, HCT-116, GI50, CellTiterBlue, HCT116 K-Ras G13D, read-out: 72 hr Cell Viability HCT116 (G13D). On the procedure: as §1, §2
In a further assay the target is T1, wild type K-Ras (Homo sapiens, UniProt P01116).
T1 construct: expressed in transfected cells; host or cells: 293H cells
Nature of the assay: G-LISA Ras activation, 293H cells transfected with Ras wild-type, EGF stimulated. The following applies: compound 1 hour, then 100 ng/ml EGF 2 minutes. The protocol: (§3) 293H cells were seeded in 6-wells at 0.6×10^6 cells per well and transfected next day with 5 μg of Ras wild-type, or G12C, G12D or G12V mutant DNA plasmid vector using transfection reagent Lipofectamine 3000. Next day cells were treated with 3.125-25 μM of Ras compounds for 1 hour. Wild-type transfected cells were subsequently treated with 100 ng/ml EGF for 2 minutes. Cells were washed once in ice-cold PBS, lysed in complete lysis buffer on ice, and processed by G-LISA according to Cytoskeleton protocol.

For another assay, the system named is Panc10.05-G12D. Nature of the assay: Viability assay (CellTiterBlue, 72 hr) Panc10.05. The following applies: Homo sapiens, Panc1005, GI50, CellTiterBlue, Panc10.05 K-Ras G12D, read-out: 72 hr Cell Viability Panc10.05 (G12D). The protocol: as §1, §2
A further assay addresses T2, K-Ras G12D (Homo sapiens, UniProt P01116, G12D).
T2 construct: expressed in transfected cells; host or cells: 293H cells
Nature of the assay: G-LISA Ras activation, 293H cells transfected with G12D mutant. Conditions: compound 1 hour. The protocol: as §3

For assay [2], the system named is HCC827 (K-Ras wild type cell line). Nature of the assay: Viability assay (CellTiterBlue, 72 hr) HCC827. Conditions: Homo sapiens, GI50, CellTiterBlue, HCC827 K-Ras wild-type. The protocol: as §1, §2
The test system of assay [3] is U87-MG (K-Ras wild type cell line). Nature of the assay: Viability assay (CellTiterBlue, 72 hr) U87-MG. The following applies: Homo sapiens, U-87 MG, GI50, CellTiterBlue, U87-MG K-Ras wild-type. On the procedure:
as §1, §2

Assay [4] concerns phospho-Akt in Panc1 (G12D). Nature of the assay: In-Cell Western phospho-Akt, Panc1. The following applies: Homo sapiens, PANC-1, 1 h; Panc1, one hour treatment; read-out: In-Cell Western Panc1 (G12D) Akt (P). The protocol:
(§4) In-cell phosphorylation assays for Erk and Akt were performed on several of the compounds and exemplary results are shown in Table 3 below using HCC827 and A375 cell lines for wild type K-Ras and Panc1 and Panc10.05 cell lines for G12D K-Ras mutants. Results are expressed in μM and corresponding structures are shown in FIGS. 2A-2G and Examples 1-152, above.
(§5) Cells are seeded in complete medium into black sided, clear-bottom 384-well microplates at 3000 cells/[…]/well. Plates are returned to 37° C. CO2 incubator for 18 hr. Drug is made as 200× in DMSO and diluted into medium to 10×. To each well is added 4 ul 10× test article or controls, and plates are returned to the incubator. Final assay DMSO concentration is 0.5%. After one hour, cells are fixed in formaldehyde, rinsed & permeabilized with triton X-100, and blocked with BSA/Goat serum blocking solution. Primary phospho-Akt and phospho-ERK antibodies are added and plates are incubated overnight at 4° C. Plates are rinsed with Tween-20 wash buffer and secondary antibody (Goat anti-rabbit, Thermofisher) is added. After 2 hours, plates are rinsed in Tween-20 wash buffer, and then PBS. Plates are imaged on the Celigo (Nexcelom) and cellular fluorescence is quantitated. Full inhibition of phospho-Akt is achieved with 1 uM BEZ235 (Sellekchem), while full inhibition of phospho-ERK is achieved with 1 uM MEK Inhibitor II Calbiochem). EC50 values are calculated using Graphpad Prism.

The subject of assay [5] is phospho-ERK in Panc10.05 (G12D). Nature of the assay: In-Cell Western phospho-ERK, Panc10.05. Conditions: Homo sapiens, Panc1005, 1 h; Panc10.05, one hour treatment; read-out: In-Cell Western Panc10.05 (G12D) Erk (P). The protocol:
as §4, §5

The subject of assay [6] is phospho-ERK in Panc1 (G12D). Nature of the assay: In-Cell Western phospho-ERK, Panc1. Conditions: Homo sapiens, PANC-1, 1 h; Panc1, one hour treatment; read-out: In-Cell Western Panc1 (G12D) Erk (P). On the procedure: as §4, §5
Assay [7] relates to phospho-Akt in Panc10.05 (G12D). Nature of the assay: In-Cell Western phospho-Akt, Panc10.05. The following applies: Homo sapiens, Panc1005, 1 h; Panc10.05, one hour treatment; read-out: In-Cell Western Panc10.05 (G12D) Akt (P). On the procedure:
as §4, §5

SMILES strings stand for the structures. Where only a bound is given, the exact number is not on record here.

T1 sequence (P01116 whole entry): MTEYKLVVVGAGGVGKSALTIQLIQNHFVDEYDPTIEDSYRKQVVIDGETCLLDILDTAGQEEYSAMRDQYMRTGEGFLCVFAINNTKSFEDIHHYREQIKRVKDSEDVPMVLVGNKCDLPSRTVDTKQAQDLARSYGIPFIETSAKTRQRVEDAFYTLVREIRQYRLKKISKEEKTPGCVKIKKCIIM
T2 sequence (P01116 whole entry G12D): as the sequence (P01116 whole entry) above, with G12D counted along it

As to `Cc1nc(C)c(C(=O)Nc2nc(-c3ccc4c(c3)CCC(=O)N4Cc3cncc4ccccc34)cs2)o1` [Compound 82, N-(4-(1-(isoquinolin-4-ylmethyl)-2-oxo-1,2,3,4-tetrahydroquinolin-6-yl)thiazol-2-yl)-2,4-dimethyloxazole-5-carboxamide], the IC50 in the assay on Panc1-G12D was more than 25 µM; in [1] it was 4 µM; in the assay with HCT116-G31D, 10 µM; at wild type K-Ras, more than 25 µM; in the assay with Panc10.05-G12D, more than 25 µM; against K-Ras G12D, 24.6 µM. In addition, the IC50 in [2] was more than 25 µM; in assay [3], 13 µM.

As for `Cc1nc(C2CCOC2)sc1C(=O)Nc1nc(-c2ccc3c(c2)CCC(=O)N3Cc2cccnc2)cs1` (stereo not drawn) [Compound 84, 4-methyl-N-(4-(2-oxo-1-(pyridin-3-ylmethyl)-1,2,3,4-tetrahydroquinolin-6-yl)thiazol-2-yl)-2-(tetrahydrofuran-3-yl)thiazole-5-carboxamide], the IC50 worked out at 7 µM in the assay on Panc1-G12D; 4 µM in the assay on HCT116-G31D; 19.9 µM against wild type K-Ras; 7 µM in the assay with Panc10.05-G12D; 4.9 µM at K-Ras G12D; 3 µM in [2]. The compound further yielded an IC50 in [3] of 4 µM.

For the compound `CCn1cc(C(=O)Nc2nc(-c3ccc4c(c3)CCC(=O)N4)cs2)c(C)n1` [Compound 25, 1-ethyl-3-methyl-N-(4-(2-oxo-1,2,3,4-tetrahydroquinolin-6-yl)thiazol-2-yl)-1H-pyrazole-4-carboxamide], the IC50 in the assay with Panc1-G12D is 2 µM; in assay [1], 1.1 µM; in the assay with HCT116-G31D, 2 µM; against wild type K-Ras, 10.7 µM; with Panc10.05-G12D, 0.774 µM; at K-Ras G12D it was 6.6 µM. Moreover, the IC50 amounted to 7 µM in [2] and 2 µM in assay [3].

Take `Cc1nc(C)c(C(=O)Nc2nc(-c3ccc4c(c3)CCC(=O)N4CC3CCCN(C(=O)OC(C)(C)C)C3)cs2)o1` (stereo not drawn) [Compound 86, tert-butyl 3-((6-(2-(2,4-dimethyloxazole-5-carboxamido)thiazol-4-yl)-2-oxo-3,4-dihydroquinolin-1(2H)-yl)methyl)piperidine-1-carboxylate]: the IC50 in the assay with Panc1-G12D worked out at 5 µM; in the assay with HCT116-G31D, 2 µM; against wild type K-Ras it was 16.7 µM; with Panc10.05-G12D, 5 µM; on K-Ras G12D, 6.1 µM; in assay [2], 2 µM. In [3], this compound displayed an IC50 of 2 µM.

As for `Cc1nc(C)c(C(=O)Nc2nc(-c3ccc4c(c3)CCC(=O)N4Cc3cccc4c3OCO4)cs2)o1` [Compound 73, N-(4-(1-(benzo[d][1,3]dioxol-4-ylmethyl)-2-oxo-1,2,3,4-tetrahydroquinolin-6-yl)thiazol-2-yl)-2,4-dimethyloxazole-5-carboxamide], the IC50 was determined as 7 µM in the assay on Panc1-G12D; 4 µM in assay [1]; 3 µM with HCT116-G31D; 18.8 µM on wild type K-Ras; 0.733 µM with Panc10.05-G12D; 19.2 µM against K-Ras G12D. Besides, the IC50 in assay [2] amounted to 12 µM; in [3], 3 µM.

Regarding `Cc1nc(C)c(C(=O)Nc2nc(-c3ccc4c(c3)CCC(=O)N4Cc3cccc(N)c3)cs2)o1` [Compound 90, N-(4-(1-(3-aminobenzyl)-2-oxo-1,2,3,4-tetrahydroquinolin-6-yl)thiazol-2-yl)-2,4-dimethyloxazole-5-carboxamide], the IC50 in the assay on Panc1-G12D was found to be 10 µM; in the assay on HCT116-G31D, 3 µM; against wild type K-Ras, 16.6 µM; with Panc10.05-G12D, 8 µM; at K-Ras G12D, 14.2 µM; in [2], 4 µM. This compound also returned an IC50 in assay [3] of 4 µM.

Take `Cc1nc(C2CCOC2)oc1C(=O)Nc1nc(-c2ccc3c(c2)CCC(=O)N3Cc2cccnc2)cs1` (stereo not drawn) [Compound 85, 4-methyl-N-(4-(2-oxo-1-(pyridin-3-ylmethyl)-1,2,3,4-tetrahydroquinolin-6-yl)thiazol-2-yl)-2-(tetrahydrofuran-3-yl)oxazole-5-carboxamide]: the IC50 in the assay with Panc1-G12D worked out at 8 µM; with HCT116-G31D it was 4 µM; at wild type K-Ras it was 23.4 µM; in the assay on Panc10.05-G12D it was 6 µM; on K-Ras G12D it was 7.6 µM; in assay [2], 5 µM. In addition, the IC50 in assay [3] came out at 5 µM.

For `Cn1nc2ccccc2c1C(=O)Nc1nc(-c2ccc3c(c2)CCC(=O)N3)cs1` [Compound 26, 2-methyl-N-(4-(2-oxo-1,2,3,4-tetrahydroquinolin-6-yl)thiazol-2-yl)-2H-indazole-3-carboxamide], the IC50 with Panc1-G12D was 2 µM; in [1], less than 0.8 µM; in the assay on HCT116-G31D, 1 µM; on wild type K-Ras it was more than 25 µM; in the assay on Panc10.05-G12D, 1.1 µM; against K-Ras G12D it was 10.6 µM. Further, the values for the IC50 in assay [2] and in assay [3] were 6 µM and 1.4 µM, respectively.

For the compound `Cc1nc(C)c(C(=O)Nc2nc(-c3ccc4c(c3)CCC(=O)N4)cs2)o1` [Compound 4, 2,4-dimethyl-N-(4-(2-oxo-1,2,3,4-tetrahydroquinolin-6-yl)thiazol-2-yl)oxazole-5-carboxamide], the IC50 against wild type K-Ras worked out at 25.1 µM; at K-Ras G12D it was 10.9 µM.

`COc1cccc(CN2C(=O)CCc3cc(-c4csc(NC(=O)c5oc(C)nc5C)n4)ccc32)c1` [Compound 76, N-(4-(1-(3-methoxybenzyl)-2-oxo-1,2,3,4-tetrahydroquinolin-6-yl)thiazol-2-yl)-2,4-dimethyloxazole-5-carboxamide]: the IC50 with Panc1-G12D was 5 µM; in assay [1], 5 µM; with HCT116-G31D, 4 µM; at wild type K-Ras, 12.6 µM; in the assay on Panc10.05-G12D it was 0.679 µM; on K-Ras G12D, 13.9 µM. Also, the IC50 in assay [2] was 17 µM; in assay [3], 2 µM.

Take `Cc1nc(CN)sc1C(=O)Nc1nc(-c2ccc3c(c2)CCC(=O)N3)cs1` [Compound 147, 2-(aminomethyl)-4-methyl-N-(4-(2-oxo-1,2,3,4-tetrahydroquinolin-6-yl)thiazol-2-yl)thiazole-5-carboxamide]: the EC50 was more than 25 µM in assay [4], 14 µM in [5], 12 µM in assay [6] and more than 25 µM in assay [7]. Further, the IC50 is 17 µM in the assay on Panc1-G12D; more than 25 µM in assay [1]; more than 25 µM with HCT116-G31D; 12 µM with Panc10.05-G12D; more than 25 µM against K-Ras G12D.

Regarding `Cc1nc(C)c(C(=O)Nc2nc(-c3ccc4c(c3)CCC(=O)N4)cs2)s1` [Compound 1, 2,4-dimethyl-N-(4-(2-oxo-1,2,3,4-tetrahydroquinolin-6-yl)thiazol-2-yl)thiazole-5-carboxamide], the IC50 against wild type K-Ras was found to be 3.8 µM; against K-Ras G12D it was 9.3 µM.

The record behind these values is patent publication US10344026B2, “Compositions and methods of targeting mutant K-ras” (NANTBIO, INC., priority 2017, dated 2019).
